# Reference: publication PMC3913017, “A Method for Fast Assessment of OP/CB Exposure in the Japanese Quail (Coturnix coturnix japonica) Using Combined Esterases Enzyme Activity as Biomarkers” (Enzyme Research, 2014)
# Where two headings read alike, the source gives them in different places.
# Legend:
# [1] = target: T1, cholinesterase (ChE) in blood plasma (Coturnix japonica, UniProt A0A8C2YFF6); experiment: Substrate hydrolysis and kinetics, blood plasma ChE; format: biochemical, Japanese quail (Coturnix coturnix japonica); details: for reaction rate of substrate hydrolysis, plasma: blood plasma, 1 mM AcTChI, BuTChI, 2 mM PrTChI
# T1 sequence (A0A8C2YFF6 30-604): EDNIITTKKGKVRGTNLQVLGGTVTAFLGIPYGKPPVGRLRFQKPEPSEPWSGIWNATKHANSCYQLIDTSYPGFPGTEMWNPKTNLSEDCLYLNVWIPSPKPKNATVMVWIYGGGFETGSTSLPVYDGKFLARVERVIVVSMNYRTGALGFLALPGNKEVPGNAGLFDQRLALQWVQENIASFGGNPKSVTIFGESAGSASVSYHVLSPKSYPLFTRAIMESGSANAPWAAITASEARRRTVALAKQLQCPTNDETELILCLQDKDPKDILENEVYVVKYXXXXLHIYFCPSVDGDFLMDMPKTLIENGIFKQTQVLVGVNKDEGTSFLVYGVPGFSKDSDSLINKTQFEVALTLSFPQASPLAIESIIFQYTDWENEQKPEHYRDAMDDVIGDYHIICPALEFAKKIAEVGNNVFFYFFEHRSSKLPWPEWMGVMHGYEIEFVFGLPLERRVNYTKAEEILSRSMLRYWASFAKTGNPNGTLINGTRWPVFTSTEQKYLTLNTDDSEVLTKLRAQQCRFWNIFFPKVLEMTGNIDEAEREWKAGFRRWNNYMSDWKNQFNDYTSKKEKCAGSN
# Method: (§1) To obtain plasma, 1 mL blood samples were added to anticoagulant (heparin, 3.7 mg, final concentration 0.1%) in 5 mL centrifuge tubes. Plasma was separated by centrifugation at 5000 g for 10 min. The liver was removed using a scalpel, cut into small pieces (2-3 mm^3), and rinsed until the blood was fully removed. The liver was then placed on ice in 5 mL tubes (5 mm internal diameter) and homogenized using a mechanically driven homogenizer with phosphate buffer (0.1 M, pH 8) with a 1 : 10 ratio (w/v) of 1 part of liver tissue to 9 parts of buffer and a speed of 10000 rpm. Homogenisation required 3 min; after every one min or so of homogenization, the mixture was rested for 30 s to allow cooling. The homogenate was then centrifuged at 5000 g for 10 min and the supernatant fraction was retained and used for subsequent analyses.
# (§2) Enzyme activity was determined at room temperature 25°C by the Ellman method [18], and using thioacetate (PSA) for measuring CbE enzyme activity or by using thiocholine (e.g., AcTChI, BuTChI, or PrTChI substrate) for measuring ChE enzyme activities [19]. […] Substrate solutions (final concentration 2 mM for PrTChI and PSA, while 1 mM for AcTChI and BuTChI) were prepared and used on the same day and kept on ice during use. Enzyme activities were calculated using an extinction coefficient of 13.6 mM^−1 cm^−1 for TNB [21] and are expressed as units (1 U ≡ 1 μmol ≡ 1000 nmol of substrate hydrolysed per min) per g wet weight of liver homogenate, while for plasma they are expressed as U/mL [2]. All measurements in this paper were carried out in duplicate.
# [2] = tested on: cholinesterase (ChE) in liver homogenate; experiment: Substrate hydrolysis, liver homogenate ChE; format: biochemical, Japanese quail (Coturnix coturnix japonica); details: 1 mM AcTChI, BuTChI, 2 mM PrTChI
# Method: as §1
# (§3) Enzyme activity was determined at room temperature 25°C by the Ellman method [18], and using thioacetate (PSA) for measuring CbE enzyme activity or by using thiocholine (e.g., AcTChI, BuTChI, or PrTChI substrate) for measuring ChE enzyme activities [19]. […] Enzyme activities were calculated using an extinction coefficient of 13.6 mM^−1 cm^−1 for TNB [21] and are expressed as units (1 U ≡ 1 μmol ≡ 1000 nmol of substrate hydrolysed per min) per g wet weight of liver homogenate, while for plasma they are expressed as U/mL [2]. […]
# [3] = target: T1, cholinesterase (ChE) in blood plasma; experiment: Inhibition rate constant (ki), blood plasma ChE (thiocholine substrates); details: for ki value, range: blood plasma, range over the substrates AcTChI, BuTChI, PrTChI and PSA
# Method: as §2
# Controls that were incubated with phosphate buffer pH 8.0 were included when appropriated. Blanks were also run at each selected inhibitor for each based on the absorbance tested. Then the enzyme activity was determined as described in above. The decrease in esterases enzyme activity over different times (1–60 min) at room temperature 25°C was detected. Then the data of inhibition time courses at different times after inhibition was fitted with a single exponential decay using SigmaPlot 11. However, the percentage inhibition was calculated from the ratio between the activity of an exposed sample and unexposed controls by the following formula: (1) % Inhibition =Esterases enzyme activity with inhibitor/Esterases enzyme activity without inhibitor×100.
# [4] = target: carboxylesterase (CbE) in blood plasma; experiment: In vitro inhibition of blood plasma CbE by CB/OP pesticides (Ellman, PSA substrate); format: biochemical, Japanese quail (Coturnix coturnix japonica); details: for IC50: substrate PSA, 30 min 25°C, mean ± SE, read-out: Half maximal inhibitory concentration (IC50), PSA
# Method: To obtain plasma, 1 mL blood samples were added to anticoagulant (heparin, 3.7 mg, final concentration 0.1%) in 5 mL centrifuge tubes. Plasma was separated by centrifugation at 5000 g for 10 min.
# as §2
# Then esterases enzyme activity was measured as explained in the above section. For the measurement of half maximal inhibitory concentrations (IC50), samples were inhibited for 30 min at room temperature 25°C with appropriate concentration of CB or OP pesticide compounds, depending on preliminary range finding tests. Controls that were incubated with phosphate buffer pH 8.0 were included. Then the enzyme activity was determined as described above. Then the data were fitted with nonlinear regression analysis using a single exponential decay by SigmaPlot 11 (Systat software, Inc.).
# [5] = tested on: quails; details: cited from earlier work
# [6] = tested on: carboxylesterase (CbE) in blood plasma; experiment: Inhibition rate constant (ki), blood plasma CbE (PSA substrate); format: biochemical, Japanese quail (Coturnix coturnix japonica); details: 4 mM methomyl, 2 mM parathion, malathion, trichlorfon, 1–60 min, 25°C, mean ± SE
# Method: Blanks were also run at each selected inhibitor for each based on the absorbance tested. Then the enzyme activity was determined as described in above. The decrease in esterases enzyme activity over different times (1–60 min) at room temperature 25°C was detected. Then the data of inhibition time courses at different times after inhibition was fitted with a single exponential decay using SigmaPlot 11. However, the percentage inhibition was calculated from the ratio between the activity of an exposed sample and unexposed controls by the following formula: (1) % Inhibition =[…].
# [7] = tested on: carboxylesterase (CbE) in blood plasma; experiment: Substrate hydrolysis, blood plasma CbE (PSA); format: biochemical, Japanese quail (Coturnix coturnix japonica); details: 2 mM PSA
# Method: as §1, §3
# [8] = tested on: carboxylesterase (CbE) in liver homogenate; experiment: Substrate hydrolysis and kinetics, liver homogenate CbE (PSA); format: biochemical, Japanese quail (Coturnix coturnix japonica)
# Method: as §1, §2
# [9] = target: T1, cholinesterase (ChE) in blood plasma; experiment: In vivo oral exposure 48 h, plasma ChE inhibition; set-up: species or system Japanese quail (Coturnix coturnix japonica)
# Method: The extent of inhibition of esterases enzyme activity was also assessed following in vivo exposure of test of quail by oral dosing (n = 15) were exposed to test solutions of parathion, malathion, methomyl, trichlorfon, or control (water) in cages. […] Samples were prepared and assayed as explained in the above section.
# [10] = tested on: CbE enzyme; experiment: Incubation with general serine esterase inhibitor, CbE activity; format: biochemical, Japanese quail (Coturnix coturnix japonica); details: 3 mM inhibitor
# [11] = tested on: ChE enzyme; experiment: Incubation with general serine esterase inhibitor, ChE activity; format: biochemical, Japanese quail (Coturnix coturnix japonica); details: 3 mM inhibitor
# [12] = read-out: inhibition of control activity
smiles,measurement,setting,value
"CCCC(=O)SCC[N+](C)(C)C.[I-] [BuTChI, (2-mercaptoethyl) trimethylammonium iodide butyrate]",Vmax,"[1]; blood plasma ChE, Figure 4(a)",1011 nmol/min/mL
same,Km,"[1]; blood plasma ChE, substrate 0.125–2 mM, read-out: Km (apparent Michaelis constant)",394 µM
same,"reaction rate of substrate hydrolysis, plasma",[1],1321.5 nmol/min/mL
same,"reaction rate of substrate hydrolysis, liver homogenate",[2],304.5 nmol/min/g
"CCOC(=O)CC(SP(=S)(OC)OC)C(=O)OCC (stereo not shown) [Malathion, S-1,2-bis(ethoxycarbonyl) ethyl O,O-dimethyl phosphorodithioate]","ki value, range",[3],0.0358 to 0.1756 min⁻¹
same,inhibition at 2000 µM,[3]; [12],83 to 99%
same,IC50,[4],910 ± 400 µM
same,median lethal dose (LD50),"[5]; oral, quails",400 mg/kg
same,"Rate constant inhibition (ki), PSA",[6],175.6 ± 16.0 × 10^−3 min^−1
"CNC(=O)ON=C(C)SC [Methomyl, S-methyl-N((methylcarbamoyl)oxy) thioacetimidate]","ki value, range",[3],0.1224 to 0.5674 min⁻¹
same,inhibition at 4000 µM,[3]; [12],83 to 99%
same,CbE enzyme activity sensitivity to inhibition,"[4]; in vitro, PSA, Figure 10(a)",insensitive to the CB methomyl except at high concentrations
same,IC50,[4],610 ± 20 µM
same,median lethal dose (LD50),"[5]; in vivo, po",24.2 mg/kg
same,"Rate constant inhibition (ki), PSA",[6],345.3 ± 12.4 × 10^−3 min^−1
"CC(=O)Sc1ccccc1 [PSA, thiophenyl acetate]","reaction rate of substrate hydrolysis, plasma",[7],68.9 nmol/min/mL
same,Vmax,"[8]; liver CbE, Figure 4(b)",1195 nmol/min/g
same,Km,"[8]; liver CbE, substrate 0.25–4 mM, read-out: apparent Km",713 µM
same,"reaction rate of substrate hydrolysis, liver homogenate","[8]; liver homogenate, 2 mM PSA",1.765 µmol/min/g
"CCOP(=S)(OCC)Oc1ccc([N+](=O)[O-])cc1 [Parathion, O,O-diethyl O-(4-nitrophenyl) phosphorothioate]","ki value, range",[3],0.4532 to 0.8233 min⁻¹
same,IC50,[4],220 ± 60 µM
same,median lethal dose (LD50),"[5]; oral, quails",6 mg/kg
same,"Rate constant inhibition (ki), PSA",[6],453.2 ± 5.6 × 10^−3 min^−1
"CCC(=O)SCC[N+](C)(C)C.[I-] [PrTChI, (2-mercaptoethyl) trimethylammonium iodide propionate]","reaction rate of substrate hydrolysis, plasma",[1],211.9 nmol/min/mL
same,"reaction rate of substrate hydrolysis, liver homogenate",[2],113.9 nmol/min/g
"COP(=O)(OC)C(O)C(Cl)(Cl)Cl (stereo not shown) [Trichlorfon, dimethyl (2,2,2-trichloro-1-hydroxyethyl) phosphonate]","ki value, range",[3],0.3451 to 0.9769 min⁻¹
same,IC50,[4],510 ± 90 µM
same,inhibition at 11 mg/kg,"[9]; read-out: % inhibition compared with the control, plasma, AcTChI",12.1%
same,inhibition at 11 mg/kg,"[9]; read-out: % inhibition compared with the control, plasma, BuTChI",33.2%
same,inhibition at 11 mg/kg,"[9]; read-out: % inhibition compared with the control, plasma, PrTChI",11.7%
same,median lethal dose (LD50),"[5]; oral, quails",22 mg/kg
same,"Rate constant inhibition (ki), PSA",[6],976.9 ± 8.9 × 10^−3 min^−1
O=S(=O)(F)Cc1ccccc1 [phenylmethanesulfonyl fluoride],level of CbE enzyme activity after incubation,[10],insignificant levels
same,level of ChE enzyme activity after incubation,[11],insignificant levels
